Where two headings read alike, the source gives them in different places.
Experiments:
[1] = tested on: Type I Collagen gene Col1a1 expression; assay: Precision cut lung slices of mice under acute bleomycin exposure, Col1a1 expression; assay type: cell-based, Mice (C57BL/6); details: acute bleomycin PCLS, 3 days culture, normalized to DMSO; FIG. 5A
Procedure: Mice (C57BL/6) were administered 3 U/kg of bleomycin (Teva Pharmaceuticals; North Wales, Pa.) on day 0 via oropharyngeal aspiration while under anesthesia. On day 14, precision cut lung slices were obtained. Following euthanization, 2% low gelling temp agarose was injected into the mouse lungs via the trachea. […] The lobes were then subjected to precision slicing to obtain samples for culture using a microtome (Compresstome VF-300-0Z, Precisionary; Greenville, N.C.). Individual slices were distributed in a multiwell culture plate and cultured for 3 days under control (DMSO) and test compound conditions.

[2] = Plasma PK, Example B15 Part 1; assay type: in vivo; details: human, initial results; for Cmax / AUC(0-t): Day 7, geometric mean; for AUC(0-t): read-out: AUC0-24, ng × h/mL; for Tmax: Day 7, median
Procedure: This study was designed as a randomized, double-blind, placebo-controlled study in 48 healthy participants conducted in 2 parts. Part 1 has completed clinical conduct, and Part 2 is ongoing. In Part 1, 24 participants were randomized 1:1:1 to receive Compound 5 80 mg QD, Compound 5 160 mg QD, or placebo QD. A safety review committee reviewed the safety and PK data from Part 1 and recommended doses for Part 2. In Part 2, 24 participants were randomized 1:1:1 to receive Compound 5 320 mg QD (Compound 5 in the morning and matched placebo in the afternoon), Compound 5 160 mg twice daily (BID), or placebo BID. In both parts, samples of BALF were collected from the middle lobe or lingula via bronchoscopy prior to dosing (Day −1) and at 6 and 24 hours post morning dose on Day 7. BALF samples were assessed for TGF-β receptor kinase activity (pSMAD2/SMAD2) in pelleted cells (primarily alveolar macrophages) and additional cell material was used to measure TGF-β signaling pathway-related gene expression levels. Plasma samples were collected to measure Compound 5 concentrations and determine protein binding. Safety was monitored via open-ended AE inquiry and clinical chemistry, hematology, vital sign, and 12-lead ECG parameters.

Cmax ([2]; 80 mg QD): 1510 ng/mL
AUC(0-t) ([2]; 80 mg QD): 25400 ng·h/mL
Tmax ([2]; 80 mg QD): 6 h
Cmax ([2]; 160 mg QD): 2990 ng/mL
AUC(0-t) ([2]; 160 mg QD): 49900 ng·h/mL
Tmax ([2]; 160 mg QD): 5 h
Structure (SMILES): COCCN(CCCCc1ccc2c(n1)NCCC2)CC[C@H](Nc1ncnc2ccccc12)C(=O)O [Compound 5, (S)-4-((2-methoxyethyl) (4-(5,6,7,8-tetrahydro-1,8-naphthyridin-2-yl)butyl)amino)-2-(quinazolin-4-ylamino) butanoic acid]
Type I Collagen gene Col1a1 expression [1]: decreased Type I Collagen gene Col1a1 expression substantially

— patent publication US20230028658A1, “EXPANDED DOSAGE REGIMENS FOR INTEGRIN INHIBITORS” (Pliant Therapeutics, Inc., priority 2021, published 2023)
